Measurements published in patent publication US20090176888A1, “COMPOSITION COMPRISING PHYTOSPHINGOSINE OR DERIVATIVE THEREOF” (KOREA INSTITUTE OF RADIOLOGICAL & MEDICAL SCIENCES, priority 2003, published 2009).

Key:
[1] = system: human uterine cervical cancer cells; experiment: In vivo animal test, tumor size with radiotherapy; set-up: species or system nude mice; conditions: for tumor size, compound alone treated group: after 7 days (rapidly increased until 7 days after the treatment); for tumor size, radiation and compound concurrent treated group: as a function of days; for tumor size, concurrent treatment vs radiation or compound alone: with radiation, FIGS. 24 and 25
Protocol: (§1) Nude mice (body weight: about 20 g) were randomized into 4 groups and the femoral region of the nude mice transplanted with human lung cancer cells. Then, tumor volume was allowed to reach a level of […]. One group had untreated cells as a control and a second group had radiation (dose of 20 Gy)-treated cells. A third group was orally administered with 50 mg/kg of an olive oil for one week on a daily basis, followed by radiotherapy (dose of 20 Gy). A fourth group was orally administered with a 50 mg/kg solution of phytosphingosine in an olive oil for one week on a daily basis, followed by radiotherapy (dose of 20 Gy). Tumor volume was measured at intervals of 3 days for 40 days. […] In case of a C8PS alone treated group, the tumor size increased until 10 days after the treatment. […] Meanwhile, tumor growth was suspended at a certain point of time after C8PS alone treatment. It can be seen from this fact that C8PS is useful by itself as an anticancer agent for inhibiting tumor growth.
The animal tests were carried out using nude mice of which the femoral regions were transplanted with human uterine cervical cancer cells in the same manner as the aforementioned animal test using C8PS.

[2] = system: human breast cancer cells; experiment: Apoptosis test with or without radiation; format: cell-based; conditions: 5 μg/ml in combination with radiation, FIG. 17
Protocol: (§2) (1) Each 5 ml of 20 μg/ml of phytosphingosine and derivatives thereof were added to human lung cancer cell-containing dishes. Some cells were cultured without radiation and others were cultured with radiation with dose of 4 Gy. This apoptosis test was carried out in the same manner in the Experiment 1. Specimens used in this apoptosis test are as follows:
(§3) Control (Cont), IR, PS, PS+IR, C4PS, C4PS+IR, C6PS, C6PS+IR, C8PS, C8PS+IR, C12PS, C12PS+IR.
(§4) (2) Apoptosis tests for human blood cancer cells, uterine cervical cancer cells, and breast cancer cells were carried out in the same manner as in the above (1) except using 5 μg/ml of phytosphingosine and derivatives thereof.

[3] = system: human uterine cervical cancer cells; experiment: Apoptosis test with or without radiation; format: cell-based; conditions: 5 μg/ml in combination with radiation, FIG. 17
Protocol: as §2, §3, §4

[4] = system: human lung cancer cells (NCI-H460); experiment: Apoptosis test (Sub G1, propidium iodide, flow cytometry); format: cell-based; conditions: 5 μg/ml, culture time of 48 hours, FIG. 2
Protocol: Cancer cells as used in the experiment were human lung cancer cells (NCI-H460, Korean Cell Line Bank), human breast cancer cells (MDA-MB-231, American Type Culture Collection (ATCC)), human uterine cervical cancer cells (HeLa, Korean Cell Line Bank), and blood cancer cells (Jurkat, ATCC). These cancer cells were cultured in RPMI 1640 media containing 10% FBS, penicillin, and streptomycin (GIBCO BRL).
The apoptosis tests were carried out at human lung cancer cells, breast cancer cells, uterine cervical cancer cells, and blood cancer cells as follows:
Phytosphingosine or a derivative thereof was dissolved in DMSO. Samples of the resultant solution of different concentration levels (1, 2, 5, 10, 15, 20 μg/ml) were prepared. According to the following treatment schedule, phytosphingosine treated cancer cells were cultured, washed with PBS (phosphate buffered saline), and fixed with 70% ethanol. The fixed cells were again washed with PBS, suspended in PBS, and 1 mg/ml of RNase was added thereto. Then, DNA was stained with 50 μg/ml of propidium iodide fluorescent dye and the change in the Sub G1 was analyzed by flow cytometry (Becton DICKINSON). The Sub G1, a marker of apoptotic cell death, means DNA distribution lower than that in the G1 phase of cell cycle.
(1-1) In order to determine an anticancer effect of phytosphingosine, 5 ml of 10 μg/ml of phytosphingosine was added to respective dishes containing lung cancer cells, breast cancer cells, uterine cervical cancer cells, and blood cancer cells.
(1-2) In order to examine a correlation of an anticancer effect with the phytosphingosine concentration and post-treatment culture time, each 5 ml of 2, 5, 10, and 15 μg/ml of phytosphingosine was added to respective human uterine cervical cancer cell-containing dishes and human breast cancer cell-containing dishes. In addition, each 5 ml of 5, 10, 15, and 20 μg/ml of phytosphingosine was added to respective human lung cancer cell-containing dishes, and each 5 ml of 1, 5, 10, and 20 μg/ml of phytosphingosine was added to respective human blood cancer cell-containing dishes.
(1-3) An anticancer effect of phytosphingosine derivatives was determined in the same manner as mentioned in (1-1) and (1-2) except using 5 μg/ml of C4PS, C6PS, C8PS, and C12PS.

[5] = system: human breast cancer cells; experiment: Colony formation test in combination with radiation; format: cell-based; conditions: FIG. 18
Protocol: (§5) Colony formation tests were carried out in human lung cancer cells, breast cancer cells, and uterine cervical cancer cells as follows:
(§6) Respective sphingosine, phytosphingosine, C6PS, and C8PS were dissolved ethanol to produce specimens. About 600 cells (for each cancer) were plated in a dish with a diameter of 60 mm and incubated in a CO2 incubator at 37° C. for a day. Then, the cancer cells were treated with the specimens in combination with radiation and were continuously cultured. When suitable colonies were formed, the cancer cells were fixed with a fixing solution (methanol/acetic acid=3:1) and stained with trypan blue. Then, the number of the colonies was counted and the results were evaluated in a comparative manner.

[6] = system: human uterine cervical cancer cells; experiment: as above; format: cell-based; conditions: FIG. 18
Protocol: as §5, §6

human lung cancer cells [7] = experiment: as above; format: cell-based; conditions: for sensitizer enhancement ratio (SER): in combination with radiation
Protocol: as §5, §6

human lung cancer cells [8] = experiment: DNA fragmentation (agarose gel electrophoresis); format: cell-based; conditions: 20 μg/ml C8PS with radiation, FIG. 20
Protocol: (§7) Human lung cancer cells were cultured in the same manner as in Experiment 1 and injected with 5 ml of 20 μg/ml of C8PS. Then, the DAPI staining and DNA fragmentation were carried out.
DNA fragmentation was carried out as follows:
C8PS-treated human lung cancer cells were dissolved in a lysis buffer (20 mM Tris/HCl, pH 8.0, 0.1 mM EDTA, 1% SDS and 0.5 mg/ml proteinase K) and treated with a mixture of phenol, chloroform, and isoamylalcohol (phenol/chloroform/isoamylalcohol=25:24:1) to thereby give a chromosomal DNA extract. The chromosomal DNA extract was subjected to 1% agarose gel electrophoresis and the resulting DNA fragments were visualized under an UV light.

human lung cancer cells [9] = experiment: In vivo animal test, tumor volume with radiotherapy (20 Gy); set-up: species or system nude mice
Protocol: as §1

human lung cancer cells [10] = experiment: Apoptosis test with or without radiation (4 Gy); format: cell-based; conditions: 20 μg/ml, FIG. 13
Protocol: as §2, §3

human lung cancer cells [11] = experiment: DAPI staining (percentage of apoptotic cells); format: cell-based; conditions: 20 μg/ml C8PS with radiation
Protocol: as §7
DAPI staining protocol was as follows:
First, a control cell group, a radiation-treated cell group, a C8PS-treated cell group, and a C8PS and radiation concurrent treated cell group were fixed with 4% paraformaldehyde at room temperature for 30 minutes and washed with PBS. 50 ng/ml of a DAPI solution was added to the fixed cell groups and incubated for 30 minutes. Then, the cell groups were again washed with PBS and examined with a fluorescent microscope. Cellular apoptosis is characterized by condensation and fragmentation of cell nuclei. Based on this fact, apoptotic cells were counted in each group. Then, the number of apoptotic cells was divided by the number of total cells to derive the percentage of apoptotic cells in each group.

Compound: CCCCCCCCCCCCCC[C@@H](O)[C@@H](O)[C@H](CO)NC(=O)CCC [C4PS, N-butanoyl phytosphingosine]
- tumor size, compound alone treated group [1]: slowly increased
- tumor size, radiation and compound concurrent treated group [1]: showed little changes
- tumor size, concurrent treatment vs radiation or compound alone [1]: significant reduction in tumor size
- enhancement of radiosensitizing effect [2]: excellent
- enhancement of radiosensitizing effect [3]: excellent
- apoptotic rate [4]: ~100%

Compound: CCCCCCCCCCCCCC[C@@H](O)[C@@H](O)[C@H](CO)NC(=O)CCCCC [C6PS, N-hexanoyl phytosphingosine]
- sensitizer enhancement ratio (SER) [5]: 2.40
- sensitizer enhancement ratio (SER) [6]: 2.67
- sensitizer enhancement ratio (SER) (human lung cancer cells [7]; FIG. 12): 1.6
- tumor size, compound alone treated group [1]: slowly increased
- tumor size, radiation and compound concurrent treated group [1]: showed little changes
- tumor size, concurrent treatment vs radiation or compound alone [1]: significant reduction in tumor size
- enhancement of radiosensitizing effect [2]: excellent
- enhancement of radiosensitizing effect [3]: excellent
- apoptotic rate [4]: ~100%

Compound: CCCCCCCCCCCCCC[C@@H](O)[C@@H](O)[C@H](CO)NC(=O)CCCCCCC [C8PS, N-octanoyl phytosphingosine]
- chromosomal DNA fragmentation, concurrent treatment vs radiation or C8PS alone (human lung cancer cells [8]): remarkably increased
- tumor volume, concurrent treatment vs radiation or C8PS alone (human lung cancer cells [9]; 50 mg/kg oral daily for one week then radiotherapy 20 Gy, FIG. 22): significantly reduced
- size of initial tumor, radiation and C8PS concurrent treated group (human lung cancer cells [9]; 50 mg/kg oral daily for one week then radiotherapy 20 Gy, FIG. 23): maintained or reduced
- tumor size, C8PS alone treated group (human lung cancer cells [9]; after the 10th day after treatment (increased until 10 days), FIG. 23): showed little changed
- apoptotic effect of concurrent application with radiation (human lung cancer cells [10]): excellent apoptotic effect
- radiosensitivity (human lung cancer cells [7]; FIG. 12): excellent radiosensitivity
- increase of radiosensitivity relative to Taxol (human lung cancer cells [7]; at LD50 of human lung cancer cells, FIG. 14B): ≥ 20%
- sensitizer enhancement ratio (SER) (human lung cancer cells [7]; FIG. 12): 2
- increase of apoptotic rate, concurrent treatment vs radiation alone (human lung cancer cells [7]; radiation at LD50 (number of colonies reduced to 50% by radiation alone), FIG. 14A): about 30%
- apoptotic rate, concurrent treatment vs radiation or C8PS alone (human lung cancer cells [11]; FIG. 19): higher apoptotic rate
- increase of apoptotic rate, concurrent treatment vs radiation or C8PS alone (human lung cancer cells [11]; as a function of time, FIG. 21): ≥ 20%

Compound: CCCCCCCCCCCCC/C=C/[C@@H](O)[C@@H](N)CO [sphingosine]
- sensitizer enhancement ratio (SER) (human lung cancer cells [7]; FIG. 12): 1.10
